How the values were obtained:
Type in all cases: cell-based
[1] = target: T1, human muscarinic M1 receptor (Homo sapiens, UniProt P11229); assay: Alphascreen Surefire phospho-ERK1/2 functional assay, M1; details: for EC50: CHO cells stably expressing human M1, read-out: pEC50 M1 (converted); for Emax: CHO, read-out: % Emax cf. ACh, M1, CHO cells stably expressing human M1, relative to ACh; for % Emax cf. ACh, M1: CHO cells stably expressing human M1, relative to ACh
T1 sequence (P11229 1-460): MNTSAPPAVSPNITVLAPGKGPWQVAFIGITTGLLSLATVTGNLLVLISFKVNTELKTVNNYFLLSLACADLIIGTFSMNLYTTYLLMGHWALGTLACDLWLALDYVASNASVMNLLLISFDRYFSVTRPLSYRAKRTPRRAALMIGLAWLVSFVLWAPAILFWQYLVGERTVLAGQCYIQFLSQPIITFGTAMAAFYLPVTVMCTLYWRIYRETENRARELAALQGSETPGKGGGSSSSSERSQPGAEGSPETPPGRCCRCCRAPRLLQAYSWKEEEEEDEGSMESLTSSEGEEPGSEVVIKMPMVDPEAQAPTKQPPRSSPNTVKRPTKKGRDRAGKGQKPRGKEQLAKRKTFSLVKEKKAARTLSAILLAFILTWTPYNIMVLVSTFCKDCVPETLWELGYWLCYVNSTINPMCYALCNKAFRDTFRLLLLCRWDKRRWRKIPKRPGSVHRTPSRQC
Procedure: (§1) ERK1/2 phosphorylation is a downstream consequence of both Gq/11 and Gi/o protein coupled receptor activation, making it highly suitable for the assessment of M1, M3 (Gq/11 coupled) and M2, M4 receptors (Gi/o coupled), rather than using different assay formats for different receptor subtypes. CHO cells stably expressing the human muscarinic M1, M2, M3 or M4 receptor were plated (25K/well) onto 96-well tissue culture plates in MEM-alpha+10% dialysed FBS. Once adhered, cells were serum-starved overnight. Agonist stimulation was performed by the addition of 5 μL agonist to the cells for 5 min (37° C.). Media was removed and 50 μL of lysis buffer added. […] Plates were incubated for 2 h with gentle agitation in the dark and then read on a PHERAstar plate reader.
(§2) pEC50 and Emax figures were calculated from the resulting data for each receptor subtype.

[2] = target: T2, human muscarinic M2 receptor (Homo sapiens, UniProt P08172); assay: Alphascreen Surefire phospho-ERK1/2 functional assay, M2; details: for EC50: CHO cells stably expressing human M2, read-out: pEC50 M2 (converted); for Emax: CHO, read-out: % Emax cf. ACh, M2, CHO cells stably expressing human M2, relative to ACh; for % Emax cf. ACh, M2: CHO cells stably expressing human M2, relative to ACh
T2 sequence (P08172 1-466): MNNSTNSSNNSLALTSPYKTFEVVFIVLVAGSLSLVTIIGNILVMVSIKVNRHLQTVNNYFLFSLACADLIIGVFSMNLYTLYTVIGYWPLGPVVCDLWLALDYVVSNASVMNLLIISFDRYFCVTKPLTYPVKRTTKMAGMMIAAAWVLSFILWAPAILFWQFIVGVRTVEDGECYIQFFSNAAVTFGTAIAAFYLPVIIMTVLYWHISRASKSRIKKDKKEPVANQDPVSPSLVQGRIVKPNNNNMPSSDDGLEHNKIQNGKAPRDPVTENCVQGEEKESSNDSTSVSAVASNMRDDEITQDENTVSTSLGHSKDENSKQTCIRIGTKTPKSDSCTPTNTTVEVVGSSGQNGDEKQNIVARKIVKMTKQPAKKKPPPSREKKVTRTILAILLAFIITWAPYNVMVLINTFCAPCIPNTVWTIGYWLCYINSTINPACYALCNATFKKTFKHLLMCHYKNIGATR
Procedure: as §1, §2

[3] = target: T3, human muscarinic M3 receptor (Homo sapiens, UniProt P20309); assay: Alphascreen Surefire phospho-ERK1/2 functional assay, M3; details: for EC50: CHO cells stably expressing human M3, read-out: pEC50 M3 (converted); for Emax: CHO, read-out: % Emax cf. ACh, M3, CHO cells stably expressing human M3, relative to ACh; for % Emax cf. ACh, M3: CHO cells stably expressing human M3, relative to ACh
T3 construct: expressed in transfected cells
Procedure: as §1, §2

[4] = target: T4, human muscarinic M4 receptor (Homo sapiens, UniProt P08173); assay: Alphascreen Surefire phospho-ERK1/2 functional assay, M4; details: for EC50: CHO cells stably expressing human M4, read-out: pEC50 M4 (converted); for Emax: CHO, read-out: % Emax cf. ACh, M4, CHO cells stably expressing human M4, relative to ACh; for % Emax cf. ACh, M4: CHO cells stably expressing human M4, relative to ACh
T4 construct: expressed in transfected cells
T4 sequence (P08173 1-479): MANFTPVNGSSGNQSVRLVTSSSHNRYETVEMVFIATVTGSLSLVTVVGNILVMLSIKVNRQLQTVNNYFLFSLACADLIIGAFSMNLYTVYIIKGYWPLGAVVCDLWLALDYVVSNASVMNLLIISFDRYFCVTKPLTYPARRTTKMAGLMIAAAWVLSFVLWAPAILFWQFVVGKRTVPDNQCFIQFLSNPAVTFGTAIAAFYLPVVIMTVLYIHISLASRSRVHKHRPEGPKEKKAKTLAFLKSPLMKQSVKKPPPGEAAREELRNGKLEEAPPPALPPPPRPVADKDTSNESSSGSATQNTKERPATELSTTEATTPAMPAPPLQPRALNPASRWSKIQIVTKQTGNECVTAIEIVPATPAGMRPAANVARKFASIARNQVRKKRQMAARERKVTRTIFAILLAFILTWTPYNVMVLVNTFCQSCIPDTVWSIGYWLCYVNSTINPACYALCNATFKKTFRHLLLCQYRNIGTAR
Procedure: as §1, §2

T3 sequence (P20309 whole entry): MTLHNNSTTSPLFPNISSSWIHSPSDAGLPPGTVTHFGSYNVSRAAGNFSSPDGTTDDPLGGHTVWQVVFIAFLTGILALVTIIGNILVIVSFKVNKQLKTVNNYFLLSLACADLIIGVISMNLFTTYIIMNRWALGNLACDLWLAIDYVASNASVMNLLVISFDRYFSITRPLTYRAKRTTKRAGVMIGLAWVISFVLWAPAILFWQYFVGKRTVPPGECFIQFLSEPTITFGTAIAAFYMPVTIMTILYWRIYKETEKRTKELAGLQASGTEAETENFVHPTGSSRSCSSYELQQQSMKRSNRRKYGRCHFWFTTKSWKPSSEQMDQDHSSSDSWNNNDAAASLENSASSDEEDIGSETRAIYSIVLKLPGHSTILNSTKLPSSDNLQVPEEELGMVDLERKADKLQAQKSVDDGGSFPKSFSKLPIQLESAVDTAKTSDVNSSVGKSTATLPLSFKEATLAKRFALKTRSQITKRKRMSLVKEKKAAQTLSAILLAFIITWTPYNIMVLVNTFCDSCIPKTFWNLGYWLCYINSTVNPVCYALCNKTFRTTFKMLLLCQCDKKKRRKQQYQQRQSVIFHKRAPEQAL

SMILES | EC50 [1] [nM] | Emax [1] [%] | EC50 [2] [µM] | Emax [2] [%] | EC50 [3] [µM] | Emax [3] [%] | EC50 [4] [nM] | also measured
CCCC1NC(=O)CC12CCN(C1CC3CCC(C1)N3C(=O)OCC)CC2 (single isomer, unassigned) [Example 2-9 Isomer 1] | 5.01 | 91 | > 20 | 2 | > 20 | 22 | 2.51 | Emax [4]: 78%
CCOC(=O)N1C2CCC1CC(N1CCC3(CC1)CC(=O)NC3Cc1ccccc1)C2 (single isomer, unassigned) [Example 2-10 Isomer 1] | 20 | 74 | > 20 |  | > 20 |  | 79.4 | % Emax cf. ACh, M2 ([2]; listed as 2-10 Isomer 1): 1%; % Emax cf. ACh, M3 ([3]; listed as 2-10 Isomer 1): 5%; % Emax cf. ACh, M4 ([4]; listed as 2-10 Isomer 1): 21%
CCOC(=O)N1C2CCC1CC(N1CCC3(CC1)CC(=O)NC3Cc1ccccc1)C2 (single isomer, unassigned) [Example 2-10 Isomer 2] | 63.1 |  |  |  |  |  | 126 | % Emax cf. ACh, M1 [1]: 77%; % Emax cf. ACh, M2 ([2]; listed as 2-10 Isomer 2): 11%; % Emax cf. ACh, M3 ([3]; listed as 2-10 Isomer 2): 13%; % Emax cf. ACh, M4 ([4]; listed as 2-10 Isomer 2): 50%
CCOC(=O)N1C2CCC1C(F)C(N1CCC3(CC1)CNC(=O)C3)C2 (single isomer, unassigned) [Example 2-11 Isomer 2] | 251 |  | > 20 | 18 | > 20 | 22 | 200 | % Emax cf. ACh, M1 [1]: 101%; % Emax cf. ACh, M4 [4]: 55%
CCOC(=O)N1C2CCC1CC(N1CCC3(CC1)CC(=O)N(CC)C3)C2 (single isomer, unassigned) [Example 2-13 Isomer 2] | 158 | 76 | > 20 | 11 | > 20 | 57 | 100 | Emax [4]: 49%
CCOC(=O)N1C2CCC1CC(N1CCC3(CC1)CNC(=O)O3)C2 (single isomer, unassigned) [Example 2-14 Isomer 2] | 39.8 |  | > 20 | 0 | > 20 | 0 | 79.4 | % Emax cf. ACh, M1 [1]: 92%; % Emax cf. ACh, M4 [4]: 60%
CCOC(=O)N1C2CCC1CC(N1CCC3(CC1)OC(=O)NC3CC)C2 (single isomer, unassigned) [Example 2-16 Isomer 1] | 50.1 |  | > 20 | 3 | > 20 | 9 | 79.4 | % Emax cf. ACh, M1 ([1]; listed as 2-16 Isomer 1): 36%; % Emax cf. ACh, M4 ([4]; listed as 2-16 Isomer 1): 19%
CCOC(=O)N1C2CCC1CC(N1CCC3(CC1)OC(=O)NC3C(C)C)C2 (single isomer, unassigned) [Example 2-17 Isomer 1] | 31.6 |  | > 20 | 2 | > 20 |  | 20 | % Emax cf. ACh, M1 ([1]; listed as 2-17 Isomer 1): 58%; % Emax cf. ACh, M3 ([3]; listed as 2-17 Isomer 1): 51%; % Emax cf. ACh, M4 ([4]; listed as 2-17 Isomer 1): 25%
CCOC(=O)N1C2CCC1CC(N1CCC3(CC1)OC(=O)NC3C(C)C)C2 (single isomer, unassigned) [Example 2-17 Isomer 2] | 200 |  |  |  |  |  | 100 | % Emax cf. ACh, M1 ([1]; listed as 2-17 Isomer 2): 117%; % Emax cf. ACh, M2 [2]: 3%; % Emax cf. ACh, M3 ([3]; listed as 2-17 Isomer 2): 12%; % Emax cf. ACh, M4 ([4]; listed as 2-17 Isomer 2): 72%
CCCN1CC2(CCN(C3CC4CCC(C3)N4C(=O)OCC)CC2)CC1=O (single isomer, unassigned) [Example 2-25 Isomer 2, ethyl 3-(3-oxo-2-propyl-2,8-diazaspiro[4.5]dec-8-yl)-8-azabicyclo[3.2.1]octane-8-carboxylate] | 251 | 53 | > 20 | 15 | > 20 | 12 | 251 | Emax [4]: 25%
[2H]C([2H])(C)OC(=O)N1C2CCC1CC(N1CCC3(CC1)CNC(=O)C3)C2 (single isomer, unassigned) [Example 2-30 Isomer 2, (1,1-^2H2)ethyl 3-(3-oxo-2,8-diazaspiro[4.5]dec-8-yl)-8-azabicyclo[3.2.1]octane-8-carboxylate] | 31.6 |  | > 20 | 9 | > 20 | 16 | 79.4 | % Emax cf. ACh, M1 ([1]; listed as 2-30 Isomer 2): 66%; % Emax cf. ACh, M4 [4]: 29%
[2H]C([2H])([2H])COC(=O)N1C2CCC1CC(N1CCC3(CC1)CNC(=O)C3)C2 (single isomer, unassigned) [Example 2-31 Isomer 2] | 25.1 |  | > 20 | 11 | > 20 | 8 | 25.1 | % Emax cf. ACh, M1 ([1]; listed as 2-31 Isomer 2): 76%; % Emax cf. ACh, M4 ([4]; listed as 2-31 Isomer 2): 26%
[2H]C([2H])([2H])C([2H])([2H])OC(=O)N1C2CCC1CC(N1CCC3(CC1)CNC(=O)C3)C2 (single isomer, unassigned) [Example 2-32 Isomer 1] | 79.4 | 92 | > 20 | 16 | > 20 |  | 126 | % Emax cf. ACh, M3 ([3]; listed as 2-32 Isomer 1): 10%; Emax [4]: 40%
[2H]C([2H])([2H])C([2H])([2H])OC(=O)N1C2CCC1CC(N1CCC3(CC1)CNC(=O)C3)C2 (single isomer, unassigned) [Example 2-32 Isomer 2] | 31.6 |  |  |  |  |  | 50.1 | % Emax cf. ACh, M1 [1]: 77%; % Emax cf. ACh, M2 [2]: 15%; % Emax cf. ACh, M3 ([3]; listed as 2-32 Isomer 2): 1%; % Emax cf. ACh, M4 [4]: 48%
